According to article PMC6218659, “Structures of DPAGT1 Explain Glycosylation Disease Mechanisms and Advance TB Antibiotic Design” (Cell, 2018):
Changes are numbered by the printed parent chain. Counter-ions that a name gives are not always drawn.

Assays:
[1] = target: T1, DPAGT1 Arg301Cys (Homo sapiens, UniProt Q9H3H5, R301C); experiment: Thermostability assay (label free differential scanning fluorimetry); format: binding, H. sapiens; details: 50 μM compound
T1 construct: combined with the LIC-adapted primers to amplify the complete DPAGT1 gene, including the desired mutations; 6xHis purification tag with TEV site (N, cleaved yes); made in house; host or cells: Spodoptera frugiperda Sf9 insect cells (baculovirus)
T1 sequence (Q9H3H5 1-408 R301C): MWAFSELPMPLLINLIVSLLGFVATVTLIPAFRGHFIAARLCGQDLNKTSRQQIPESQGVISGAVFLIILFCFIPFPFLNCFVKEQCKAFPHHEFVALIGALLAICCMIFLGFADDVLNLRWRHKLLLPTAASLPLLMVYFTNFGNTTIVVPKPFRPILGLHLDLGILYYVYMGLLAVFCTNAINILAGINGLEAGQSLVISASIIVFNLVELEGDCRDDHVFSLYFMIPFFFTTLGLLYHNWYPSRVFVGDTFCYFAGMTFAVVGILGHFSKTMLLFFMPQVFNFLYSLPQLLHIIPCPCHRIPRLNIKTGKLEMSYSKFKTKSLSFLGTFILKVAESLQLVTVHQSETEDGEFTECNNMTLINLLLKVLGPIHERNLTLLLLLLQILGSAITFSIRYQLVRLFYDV
Procedure: (§1) Samples with a volume of 40 μl were prepared containing 0.5 mg/ml protein and 50 μM compound or 5% DMSO in GFB. A glass capillary was dipped into each sample, with the capillary held horizontally to ensure that the capillary was full of the sample. The capillaries were placed on the capillary holder on the Nanotemper Prometheus. Technical triplicates of each sample were prepared, and each experiment was conducted with biological triplicates of each protein. PR.ThermControl software was used to run the experiment and analyse the data. A melting curve from 20 °C – 95 °C at 5 °C/min was performed. The minimum of the first derivative of the 330/350nm ratio was used to determine the Tm1/2.

[2] = target: T2, DPAGT1 Leu168Pro (Homo sapiens, UniProt Q9H3H5, L168P); experiment: as above; format: binding, H. sapiens; details: 50 μM compound
T2 construct: combined with the LIC-adapted primers to amplify the complete DPAGT1 gene, including the desired mutations; 6xHis purification tag with TEV site (N, cleaved yes); made in house; host or cells: Spodoptera frugiperda Sf9 insect cells (baculovirus)
T2 sequence (Q9H3H5 1-408 L168P): T1 sequence (Q9H3H5 1-408 R301C) with L168P, C301R
Procedure: as §1

[3] = target: T3, DPAGT1 Val264Gly (Homo sapiens, UniProt Q9H3H5, V264G); experiment: as above; format: binding, H. sapiens; details: 50 μM compound
T3 construct: H. sapiens DPAGT1 (1-408, Val264Gly, N-terminal 6 x HIS tag, TEV cleavage site); 6xHis purification tag with TEV site (N, cleaved yes); made in house; host or cells: Spodoptera frugiperda Sf9 insect cells (baculovirus)
T3 sequence (Q9H3H5 1-408 V264G): T1 sequence (Q9H3H5 1-408 R301C) with V264G, C301R
Procedure: as §1

[4] = target: T4, DPAGT1 WT (Homo sapiens, UniProt Q9H3H5); experiment: as above; format: binding, H. sapiens; details: 50 μM compound
T4 construct: H. sapiens DPAGT1 (1-408, N-terminal 6 x HIS tag, TEV cleavage site); 6xHis purification tag with TEV site (N, cleaved yes); made in house; host or cells: Spodoptera frugiperda Sf9 insect cells (baculovirus)
T4 sequence (Q9H3H5 1-408): T1 sequence (Q9H3H5 1-408 R301C) with C301R
Procedure: as §1

[5] = target: T5, DPAGT1 (Homo sapiens, UniProt Q9H3H5); experiment: Radiolabeled substrate enzyme activity assay; format: biochemical, H. sapiens; details: purified DPAGT1 enzyme, Figure 6F
T5 construct: H. sapiens DPAGT1 (1-408, N-terminal 6 x HIS tag, TEV cleavage site); 6xHis purification tag with TEV site (N, cleaved yes); made in house; host or cells: Spodoptera frugiperda Sf9 insect cells (baculovirus)
T5 sequence (Q9H3H5 1-408): T1 sequence (Q9H3H5 1-408 R301C) with C301R
Procedure: 2 μl of 2 μM DPAGT1 WT or mutant proteins in GFB buffer supplemented with 5mM extra MgCl2, 1% OGNG/CHS/cardiolipin and dolichyl monophosphate was combined with 2 μl of UDP-N-acetyl [1-14C] […] The reaction was terminated by the addition of 6 μl of 100% methanol and immediately transferred onto ice. 1 μl of sample was spotted onto a silica coated TLC plate in triplicate and run with a mobile phase consisting of chloroform, methanol, and water at a 65:25:4 ratio respectively. After the run, the TLC plate was dried thoroughly, wrapped in cling film, incubated with a phosphor imaging substrate for 4 days, then phosphor imaged using a Biorad. The pixel density of the spots corresponding to the hydrophobic product was divided by combined pixel density of the product and the substrate and multiplied by the known concentration of substrate added to ascertain the amount of product formed.

[6] = Human plasma protein binding assay; format: in vitro ADME; details: read-out: human plasma protein binding, bound (converted)
[7] = Tolerance testing in uninfected mice; format: in vivo; details: uninfected mice (n=5), 10 days, daily 30 mg.kg^-1 ip
[8] = test system: Mtb-GFP; format: cell-based, Mycobacterium tuberculosis

| Structure (SMILES) | Thermostability (Tm1/2) with added compound [1] [°C] | Thermostability (Tm1/2) with added compound [2] [°C] | Thermostability (Tm1/2) with added compound [3] [°C] | Thermostability (Tm1/2) with added compound [4] [°C] | effect on DPAGT1 catalytic activity [5] | fraction unbound [6] | tolerance, signs of toxicity [7] | extracellular release of GFP (lysis) [8] |
| --- | --- | --- | --- | --- | --- | --- | --- | --- |
| N[C@H]1[C@H](O[C@H]2O[C@H](CO)[C@@H](O)[C@H](O)[C@H]2N)O[C@H](C[C@@H](O)[C@H]2O[C@@H](n3ccc(=O)[nH]c3=O)[C@H](O)[C@@H]2O)[C@H](O)[C@@H]1O [TUN, α-D-glucosamine-(1”-11')-tunicamyl uracil dihydrochloride] | 80.9±0.5 | 84.0±0.2 | 82.6±0.1 | 83.0±0.4 |  |  |  |  |
| CCCCCCCC(=O)N[C@H]1[C@H](O[C@H]2O[C@H](CO)[C@@H](O)[C@H](O)[C@H]2NC(=O)CCCCCCC)O[C@H](C[C@@H](O)[C@H]2O[C@@H](n3ccc(=O)[nH]c3=O)[C@H](O)[C@@H]2O)[C@H](O)[C@@H]1O [TUN-8,8, Di-N-octanoyl-tunicamycin] |  |  |  |  | negligible effect | 0.018 | no signs of toxicity | lytic effects |
